The text below walks through data of PMC11532403 (Signal Transduction and Targeted Therapy, 2024).

pIC50: −log10 of the molar value.

Series [1] in a line: Pharmacokinetics in beagles. It counts as in vivo. The note with it: both sexes, beagle, dog, plasma, iv, 1 mg/kg i.v.
The next series relates to RET-driven xenografts. Put plainly: RET-driven xenograft models, overall. The class given is in vivo, mice. The note with it: for Effective tumor suppressant dose (mg/kg): tumor-bearing mice. The protocol: All procedures relating to animal handling, care, and treatment were performed according to the Beijing Laboratory Animal Management Regulations. 6-week-old male BALB/c nude mice were inoculated subcutaneously into the flank with Baf3-CCDC6-RET^WT (5*10^6 cells/ 0.1 mL/ each), Baf3-CCDC6-RET^M918T (5*10^6 cells/0.1 mL/each), Baf3-CCDC6-RET^V804M (5*10^6 cells/ 0.1 mL/ each), or HEK293T-KIF5B-RET^V804M (5*10^6 cells/ 0.1 mL/ each). Mice were randomized by tumor size into groups of 10 to 12 when tumor volume reached approximately 100-150 mm^3. […] Tumor size and body weight were measured two times each week, and tumor volume was calculated with the following formula: [length × (width)^2]/ 2. Statistical significance was calculated by using two-way ANOVA test to assess the difference in tumor volumes between the control (vehicle-treated) and treatment groups.
Supplementary Figure S1. […] Mice bearing Baf3-CCDC6-RET^WT (a), Baf3-CCDC6-RET^M918T (b) and Baf3-CCDC6-RET^V804M (c) xenograft and time course of treatment. Data represent mean ± standard error of the mean (SEM). There were 12 mice in each group in both models. d, Mice bearing HEK293T-KIF5B-RET^V804M xenograft and time course of treatment. Data represent mean ± SEM. There were 10 mice in each group in this model. […] Statistical analysis was performed using a two-way ANOVA test. *, […]; **, p < 0.01; ***, p < 0.001; ****, p < 0.0001. Abbreviations: bid, bis in die; mc, methyl cellulose; mpk, mg/Kg.

The next series has as its system preclinical animals. Description: Preclinical animal long term (repeat-dose) toxicity tests, species not stated. It counts as in vivo.
The next series deals with RET alterations in ctDNA. Description: ctDNA profiling (1021-gene NGS panel). The class given is in vivo, human. The note with it: Cycle 1 Day 28, of 23 patients. The protocol: A retrospective analysis of circulating tumor DNA (ctDNA) profiling was performed using longitudinal plasma samples obtained at baseline, Cycle 1 Day 28, and post-progressive disease. At baseline, blood samples from all patients were subjected for NGS. Among them, 67 (54.9%) patients had detectable RET alterations in ctDNA, including KIF5B-RET (51/122, 41.8%), CCDC6-RET (5/122, 4.1%), NCOA4-RET (3/122, 2.5%), RET^M918T mutation (7/122, 5.7%) and other RET variation (1/122, 0.8%).
For molecular profiling, plasma samples were collected at baseline, Cycle 1 Day 28, and post-progressive disease, and the ctDNA were isolated for analysis. Gene alteration status was analyzed at a central laboratory using a validated, commercially available 1021-gene NGS panel (GenePlus, Beijing, China).

The next series addresses T1, RET^G810S (Homo sapiens, UniProt P07949, G810S).
T1 construct: RET (residues 658-1114) was cloned into pFastBac vector containing an N-terminal Glutathione S-transferase (GST) tag; made in house; host or cells: Sf9 insect cells (baculovirus)
Description: HTRF kinEASE-TK kinase assay. To be noted: ATP at Km; read-out: Biochemical IC50 RET^G810S. Here is the method: (§1) RET (residues 658-1114) was cloned into pFastBac vector containing an N-terminal Glutathione S-transferase (GST) tag. Mutagenesis was performed on this vector to generate the RET^V804M single mutant: RETV804MmutF: […]a[…] and RETV804MmutR: […]t[…]; the RET^M918T single mutant: RETM918TmutF: […]c[…] and RETM918TmutR: […]g[…]; the RET^G810S single mutant: RETG810SmutF: […]tc[…] and RETG810SmutR: […]ga[…]. Recombinant baculovirus for expression of GST-RET was generated by co-transfection of Sf9 cells. Plaque-purified viruses were amplified, titrated and used to infect Sf9 cells incubated at 27 °C and 80 rpm. Cells were harvested 72 h post infection for protein purification.
(§2) Frozen cell pellets (1 liter culture/each) were thawed and resuspended in 20 ml of buffer A (50mM Tris-HCl, pH 7.5, 150mM NaCl, 0.1mM EDTA, 0.5% Triton X-100, 20% glycerol and 1* protease inhibitor [#539134-1SETCN, Merck]) and sonicated. The cell lysates were centrifuged at 20000 rpm for 40 min at 4 °C, then applied to GSH-Sepharose 4 Fast Flow (GE Healthcare) at 4 °C. After washing twice with 10 mL of buffer B (50mM Tris-HCl, pH 7.5, 150mM NaCl, 0.1 mM EDTA, 20% glycerol), the protein was eluted with elution buffer (50mM Tris-HCl, pH 7.5, 150mM NaCl, 0.1mM EDTA, 20% glycerol, 20mM Glutathione, 1 mM DTT) and concentrated using Amicon Ultra-15. Purities of proteins were 90% as determined by SDS-PAGE and Coomassie Blue stain.
(§3) Kinase activity was detected using CisBio HTRF kinEASE-TK kit. The assay was performed in 384-well white plates (#3574, Corning) in a reaction volume of 10 μL containing a final concentration of 50 mM HEPES, pH 7.5, 0.1 mM Na3VO4,0.01% BSA, 0.001% Tween-20, 5 mM MgCl2, […], 1 mM DTT, 1 μM TK-Substrate-biotin. The reaction was initiated by the addition of ATP at Km and indicated recombinant RET proteins. […] After incubation at 23 °C for 1 hour, FRET signal was measured on an EnVision reader (PerkinElmer Inc.).

The target of the next series is T2, RET^WT (Homo sapiens, UniProt P07949).
T2 construct: RET (residues 658-1114) was cloned into pFastBac vector containing an N-terminal Glutathione S-transferase (GST) tag; made in house; host or cells: Sf9 insect cells (baculovirus)
T2 sequence (P07949 658-1114): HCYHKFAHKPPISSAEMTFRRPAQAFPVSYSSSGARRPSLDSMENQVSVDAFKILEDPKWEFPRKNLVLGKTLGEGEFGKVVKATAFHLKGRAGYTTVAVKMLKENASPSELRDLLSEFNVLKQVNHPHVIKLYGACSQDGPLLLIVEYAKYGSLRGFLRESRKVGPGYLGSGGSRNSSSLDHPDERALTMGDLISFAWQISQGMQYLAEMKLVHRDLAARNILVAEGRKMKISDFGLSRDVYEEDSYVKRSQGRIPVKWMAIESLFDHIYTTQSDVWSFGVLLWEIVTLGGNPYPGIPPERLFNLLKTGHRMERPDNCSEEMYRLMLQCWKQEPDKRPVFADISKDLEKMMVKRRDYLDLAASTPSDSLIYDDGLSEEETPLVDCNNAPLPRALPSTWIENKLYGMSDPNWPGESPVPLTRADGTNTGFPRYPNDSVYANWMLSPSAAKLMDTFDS
Description: HTRF kinEASE-TK kinase assay. To be noted: ATP at Km; read-out: Biochemical IC50 RET^WT. Here is the method:
as §1, §2, §3
(In TR-FRET formats the signal depends on donor and acceptor labels being close together.)

For a further series, the target named is T3, RET^M918T (Homo sapiens, UniProt P07949, M918T).
T3 construct: RET (residues 658-1114) was cloned into pFastBac vector containing an N-terminal Glutathione S-transferase (GST) tag; made in house; host or cells: Sf9 insect cells (baculovirus)
T3 sequence (P07949 658-1114 M918T): as the sequence (P07949 658-1114) above, with M261T counted along it
Description: HTRF kinEASE-TK kinase assay. The note with it: ATP at Km; read-out: Biochemical IC50 RET^M918T. The protocol: as §1, §2, §3

In another series the test system is beagles. Description: 28-day repeat-dose toxicity. The class given is in vivo.

T1 sequence (P07949 658-1114 G810S): as the sequence (P07949 658-1114) above, with G153S counted along it

Take `COc1ccc(CN2C3CC2CN(c2ccc(-c4cc(N5CC(C)(O)C5)cn5ncc(C#N)c45)cn2)C3)cn1` [SY-5007, 6-(3-hydroxy-3-methylazetidin-1-yl)-4-(6-(6-((6-methoxypyridin-3-yl)methyl)-3,6-diazabicyclo[3.1.1]heptan-3-yl)pyridin-3-yl)pyrazolo[1,5-a]pyridine-3-carbonitrile]: the clearance (usually a measure of how efficiently the substance is removed, as volume per time) in series [1] is 6.63 mL/min/kg. In addition, the half-life (usually how long it takes for the measured level to halve) in series [1] is 3.27 h. Besides, in series [1] (read-out: Vss), the Vd was determined as 1.43 L/kg. Also, the “Minimal effective dose (significant tumor growth inhibition in most models)” value in the series with RET-driven xenografts (mouse, in vivo) came to 10 mg/kg BID. Moreover, the “Effective tumor suppressant dose (mg/kg)” value was 6(3 mg/kg BID) in the series on RET-driven xenografts (daily dose of 3 mg/kg BID) and 12(6 mg/kg BID) in the series on RET-driven xenografts (daily dose of 6 mg/kg BID). Moreover, the “Liver and gallbladder toxicity” value with preclinical animals (preclinical animal long term toxicity tests) was “? Provision is made for the toxicity to the liver and gallbladder found in preclinical animal long term toxicity tests, and for adverse events associated with drugs with a similar mechanism of action to this product”. Also, the “Reproductive toxicity (reproductive tissue weight)” value in the series with preclinical animals (preclinical long toxicity experiments) is “? Preclinical long toxicity experiments observed a weight reduction in reproductive tissue, so relevant regulations are made”. In addition, the “Patients with complete RET clearance in ctDNA” value in the series with RET alterations in ctDNA is on record as 21 patients. In addition, the pIC50 (as a rule, the IC50 on a negative log10 scale, so that one unit is a factor of ten) at RET^G810S is 8.68; at RET^WT, 9.47; at RET^M918T, 9.08. The “HNSTD” value was 8 mg/kg in the series on beagles (female Beagle, GLP long toxicity study); 8 mg/kg with beagles (females, 28 days); 4 mg/kg in the series with beagles (male Beagle, GLP long toxicity study); 4 mg/kg with beagles (males, 28 days). In addition, the “Bleeding tendency: gastric mucosa and ileum findings” value with beagles (preclinical Beagle dogs, repeated dosing) was “? This drug was found to have gastric mucosal reddening and ileal discolouration in preclinical SD rats and Beagle dogs in repeated dosing tests, so the relevant provisions were made”. In the series with beagles (preclinical Beagle repeated administration), the “Electrolyte abnormalities (blood PK)” value was “? Abnormalities such as blood PK were found in the preclinical SD rat and Beagle repeated administration test of this product, and the relevant regulations were carried out in consideration of the fact that similar mechanism of action drugs have been reported”.
